The record followed here is patent publication US20230183237A1, “COMPETITIVE AND NONCOMPETITIVE INHIBITORS OF THE MUSCARINIC ACETYLCHOLINE RECEPTOR M5” (Vanderbilt University, priority 2020, published 2023).

A value given as a limit tells only on which side of the number the result lay.

In the assay the target is T1, hM5 (Homo sapiens, UniProt P08912).
T1 construct: expressed in transfected cells
T1 sequence (P08912 1-532): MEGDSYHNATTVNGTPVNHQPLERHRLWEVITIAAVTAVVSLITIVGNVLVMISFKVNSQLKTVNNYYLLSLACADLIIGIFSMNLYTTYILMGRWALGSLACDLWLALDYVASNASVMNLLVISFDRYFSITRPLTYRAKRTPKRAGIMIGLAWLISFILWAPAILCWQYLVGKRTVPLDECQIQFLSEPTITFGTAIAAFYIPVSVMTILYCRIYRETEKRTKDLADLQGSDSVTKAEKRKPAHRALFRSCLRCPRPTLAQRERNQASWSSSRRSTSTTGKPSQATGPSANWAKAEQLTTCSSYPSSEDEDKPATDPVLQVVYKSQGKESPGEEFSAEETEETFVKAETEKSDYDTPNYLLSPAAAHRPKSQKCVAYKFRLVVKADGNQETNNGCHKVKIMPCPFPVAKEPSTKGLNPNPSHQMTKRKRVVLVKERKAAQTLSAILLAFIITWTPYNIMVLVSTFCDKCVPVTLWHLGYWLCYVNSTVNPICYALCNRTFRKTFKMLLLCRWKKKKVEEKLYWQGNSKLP
Put plainly: Calcium mobilization concentration-response (IC50 vs EC80 acetylcholine), CHO hM5. The format is cell-based. The conditions noted are these: CELL LINE hM5; vs EC80 acetylcholine; read-out: IC50. An outline of the steps: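 CHO cells stably expressing hM5, dye-loaded, in HBSS/20 mM HEPES/2.5 mM probenecid, pH 7.4. Compounds were pre-incubated 140 s before an EC80 acetylcholine challenge, with calcium flux read kinetically.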

As for `O=S(=O)(c1cnc(Cl)s1)N1CCC(c2cn3ncnc3cc2Cl)CC1` [Compound 532, 2-chloro-5-((4-(7-chloro-[1,2,4]triazoto[1,5-a]pyridin-6-yl)piperidin-1-yl)sulfonyl)thiazole], the half-inhibitory concentration (IC50) – broadly, the point on the concentration scale where inhibition reaches its midpoint – stood at 172 nM.
Next, `Cc1c(C2CCN(S(=O)(=O)c3cnc4sccn34)CC2)cn2ncnc2c1F` [Compound 533, 5-((4-(8-fluoro-7-methyl-[1,2,4]triazolo[1,5-a]pyridin-6-yl)piperidin-1-yl)sulfonyl)imidazo[2,1-b]thiazole]: 9 nM; `Cc1c(C2CCN(S(=O)(=O)c3cnc(Cl)s3)CC2)cn2ncnc2c1F` [Compound 534, 2-chloro-5-((4-(8-fluoro-7-methyl-[1,2,4]triazolo[1,5-a]pyridin-6-yl)piperidin-1-yl)sulfonyl)thiazole]: 1650 nM.
Next, `Cc1cc2ncnn2nc1C1CCN(S(=O)(=O)c2cnc3sccn23)CC1` [Compound 535, 5-((4-(7-methyl-[1,2,4]triazolo[1,5-b]pyridazin-6-yl)piperidin-1-yl)sulfonyl)imidazo[2,1-b]thiazole]: 133 nM; `Cc1cc2ncnn2nc1C1CCN(S(=O)(=O)c2cnc(Cl)s2)CC1` [Compound 536, 2-chloro-5-((4-(7-methyl-[1,2,4]triazolo[1,5-b]pyridazin-6-yl)piperidin-1-yl)sulfonyl)thiazole]: 9510 nM.
Next, `[2H]C1([2H])CC(c2cn3ncnc3c(F)c2C)CC([2H])([2H])N1S(=O)(=O)c1cnc2sccn12` [Compound 537, 5-((4-(8-fluoro-7-methyl-[1,2,4]triazolo[1,5-a]pyridin-6-yl)piperidin-1-yl-2,2,6,6-d4)sulfonyl)imidazo[2,1-b]thiazole]: 11 nM.
As to `[2H]C1([2H])CC(c2cn3ncnc3cc2F)CC([2H])([2H])N1S(=O)(=O)c1cnc2sccn12` [Compound 538, 5-((4-(7-fluoro-[1,2,4]triazolo[1,5-a]pyridin-6-yl)piperidin-1-yl-2,2,6,6-d4)sulfonyl)imidazo[2,1-b]thiazole], the 50% inhibitory concentration (IC50) was determined as 125 nM.
Regarding `Cc1nnc(S(=O)(=O)N2CCC(c3cn4ncnc4cc3C)CC2)s1` [Compound 539, 2-methyl-5-((4-(7-methyl-[1,2,4]triazolo[1,5-a]pyridin-6-yl)piperidin-1-yl)sulfonyl)-1,3,4-thiadiazole], the half-maximal inhibitory concentration (IC50) came to 31 nM.
Next, `Cc1nnc(S(=O)(=O)N2CCC(c3cn4ncnc4cc3Cl)CC2)s1` [Compound 540, 2-((4-(7-Chloro[1,2,4]triazolo[1,5-a]pyridin-6-yl)piperidin-1-yl)sulfonyl)-5-methyl-1,3,4-thiadiazole]: 28 nM; `Cn1cnnc1S(=O)(=O)N1CCC(c2cn3ncnc3cc2Cl)CC1` [Compound 541, 7-chloro-6-(1-((4-methyl-4H-1,2,4-triazol-3-yl)sulfonyl)piperidin-4-yl)-[1,2,4]triazolo[1,5-a]pyridine]: 261 nM.
Next, `Cc1c(C2CCN(S(=O)(=O)c3nncn3C)CC2)cn2ncnc2c1F` [Compound 542, 8-fluoro-7-methyl-6-(1-((4-methyl-4H-1,2,4-triazol-3-yl)sulfonyl)piperidin-4-yl)-[1,2,4]triazolo[1,5-a]pyridine]: 1710 nM.
Next, `CC(=O)NCc1c(S(=O)(=O)N2CCC(c3cn4ncnc4cc3C)CC2)cnn1C` [Compound 543, N-((1-methyl-4-((4-(7-methyl-[1,2,4]triazolo[1,5-a]pyridin-6-yl)piperidin-1-yl)sulfonyl)-1H-pyrazol-5-yl)methyl)acetamide]: more than 10000 nM.
Regarding `O=S(=O)(c1cnn2ccccc12)N1CCC(c2cn3ncnc3cc2Cl)CC1` [Compound 544, 7-chloro-6-(1-(pyrazolo[1,5-a]pyridin-3-ylsulfonyl)piperidin-4-yl)-[1,2,4]triazolo[1,5-a]pyridine], the concentration for half-maximal inhibition (IC50) was 15 nM.
Next, `Cc1c(C2CCN(S(=O)(=O)c3cnn4ccccc34)CC2)cn2ncnc2c1F` [Compound 545, 8-fluoro-7-methyl-6-(1-(pyrazolo[1,5-a]pyridin-3-ylsulfonyl)piperidin-4-yl)-[1,2,4]triazolo[1,5-a]pyridine]: 33 nM.
In the case of `Cc1cc2ncnn2nc1C1CCN(S(=O)(=O)c2cnn3ccccc23)CC1` [Compound 546, 7-methyl-6-(1-(pyrazolo[1,5-a]pyridin-3-ylsulfonyl)piperidin-4-yl)-[1,2,4]triazolo[1,5-b]pyridazine], the IC50 turned out to be 534 nM.
Next, `[2H]C1([2H])CC(c2cn3ncnc3cc2C)CC([2H])([2H])N1S(=O)(=O)c1cnn(C)c1C#N` [Compound 547, 1-methyl-4-((4-(7-methyl-[1,2,4]triazolo[1,5-a]pyridin-6-yl)piperidin-1-yl-2,2,6,6-d4)sulfonyl)-1H-pyrazole-5-carbonitrile]: 10 nM; `Cc1cc(N(C)C)ncc1C1CCN(S(=O)(=O)c2cnn(C)c2C)CC1` [Compound 550, 5-(1-((1,5-dimethyl-1H-pyrazol-4-yl)sulfonyl)piperidin-4-yl)-N,N,4-trimethylpyridin-2-amine]: 9 nM; `Cc1cc(N(C)C)ncc1C1CCN(S(=O)(=O)c2cnn(C)c2Cl)CC1` [Compound 551, 5-(1-((5-chloro-1-methyl-1H-pyrazol-4-yl)sulfonyl)piperidin-4-yl)-N,N,4-trimethylpyridin-2-amine]: 7 nM.
Next, `Cc1ncc(S(=O)(=O)N2CCC(c3cnc(N(C)C)cc3C)CC2)s1` [Compound 552, N.N,4-trimethyl-5-(1-((2-methylthiazol-5-yl)sulfonyl)piperidin-4-yl)pyridin-2-amine]: 94 nM; `COCC(=O)NCc1c(S(=O)(=O)N2CCC(c3cn4ncnc4cc3F)CC2)cnn1C` [Compound 553, N-((4-((4-(7-fluoro-[1,2,4]triazoto[1,5-a]pyridin-6-yl)piperidin-1-yl)sulfonyl)-1-methyl-1H-pyrazol-5-yl)methyl)-2-methoxyacetamide]: more than 10000 nM.
In the case of `Cc1cc2ncnn2cc1C1CCN(S(=O)(=O)c2cnn(C)c2CNC(=O)c2ccccn2)CC1` [Compound 554, N-((1-Methyl-4-((4-(7-methyl-[1,2,4]triazolol[1,5-a]pyridin-6-yl)piperidin-1-yl)sulfonyl)-1H-pyrazol-5-yl)methyl)picolinamide], the concentration for half-maximal inhibition (IC50) stood at 736 nM.
Next, `Cn1ncc(S(=O)(=O)N2CCC(c3c(C(F)(F)F)nc4n3CCCC4)CC2)c1Cl` [Compound 555, 3-(1-((5-chloro-1-methyl-1H-pyrazol-4-yl)sulfonyl)piperidin-4-yl)-2-(trifluoromethyl)-5,6,7,8-tetrahydroimidazo[1,2-a]pyridine]: more than 10000 nM; `Cc1nnc(S(=O)(=O)N2CCC(c3cn4ncnc4cc3C(F)F)CC2)s1` [Compound 556, 2-((4-(7-(difluoromethyl)-[1,2,4]triazolo[1,5-a]pyridin-6-yl)piperidin-1-yl)sulfonyl)-5-methyl-1,3,4-thiadiazole]: 342 nM; `Cn1cc(S(=O)(=O)N2CCC(c3cn4ncnc4cc3Cl)CC2)nn1` [Compound 557, 7-chloro-6-(1-((1-methyl-1H-1,2,3-triazol-4-yl)sulfonyl)piperidin-4-yl)-[1,2,4]triazolo[1,5-a]pyridine]: 25 nM.
Next, `Cc1c(C2CCN(S(=O)(=O)c3cn(C)nn3)CC2)cn2ncnc2c1F` [Compound 558, 8-fluoro-7-methyl-6-(1-((1-methyl-1H-1,2,3-triazol-4-yl)sulfonyl)piperidin-4-yl)-[1,2,4]triazoto[1,5-a]pyridine]: 235 nM.
Next, `Cc1cc2ncnn2nc1C1CCN(S(=O)(=O)c2cn(C)nn2)CC1` [Compound 559, 7-methyl-6-(1-((1-methyl-1H-1,2,3-triazol-4-yl)sulfonyl)piperidin-4-yl)-[1,2,4]triazolo[1,5-b]pyridazine]: more than 10000 nM.
For the compound `Cc1ncc(S(=O)(=O)N2CCC(F)(c3cn4ncnc4cc3C)CC2)o1` [Compound 560, 5-((4-fluoro-4-(7-methyl-[1,2,4]triazolo[1,5-a]pyridin-6-yl)piperidin-1-yl)sulfonyl)-2-methyloxazole], the 50% inhibitory concentration (IC50) was 3140 nM.
`Cc1cc(S(=O)(=O)N2CCC(F)(c3cn4ncnc4cc3C)CC2)sn1` [Compound 561, 5-((4-fluoro-4-(7-methyl-[1,2,4]triazolo[1,5-a]pyridin-6-yl)piperidin-1-yl)sulfonyl)-3-methylisothiazole]: the IC50 was determined as 181 nM.
Next, `CCc1cc2ncnn2cc1C1CCN(S(=O)(=O)c2cn(C)nn2)CC1` [Compound 562, 7-ethyl-6-(1-((1-methyl-1H-1,2,3-triazol-4-yl)sulfonyl)piperidin-4-yl)-[1,2,4]triazolo[1,5-a]pyridine]: 972 nM; `Cn1cc(S(=O)(=O)N2CCC(c3cn4ncnc4cc3C(F)(F)F)CC2)nn1` [Compound 563, 6-(1-((1-methyl-1H-1,2,3-triazol-4-yl)sulfonyl)piperidin-4-yl)-7-(trifluoromethyl)-[1,2,4]triazolo[1,5-a]pyridine]: 234 nM; `Cc1ncc(S(=O)(=O)N2CCC(c3cnc(N(C)C)cc3C)CC2)o1` [Compound 564, N,N,4-trimethyl-5-(1-((2-methyloxazol-5-yl)sulfonyl)piperidin-4-yl)pyridin-2-amine]: 94 nM.
